Measurements taken from the CheMixHub viscosity set.
Where “and” joins values, the source holds several entries; their conditions need not be identical. Equal values may be shown once. ± gives the uncertainty stated by the source.

Assay: xn = mol fraction of the nth substance listed

COC(C)(C)C + c1ccccc1
viscosity (293.15 K, 101.33 kPa, x1 = 0.0933): 0.629 ± 0.033 mPa·s | viscosity (293.15 K, 101.33 kPa, x1 = 0.1906): 0.5805 ± 0.031 mPa·s | viscosity (293.15 K, 101.33 kPa, x1 = 0.2994): 0.5449 ± 0.029 mPa·s | viscosity (293.15 K, 101.33 kPa, x1 = 0.3965): 0.5122 ± 0.027 mPa·s | viscosity (293.15 K, 101.33 kPa, x1 = 0.5143): 0.4813 ± 0.025 mPa·s | viscosity (293.15 K, 101.33 kPa, x1 = 0.6083): 0.4593 ± 0.024 mPa·s | viscosity (293.15 K, 101.33 kPa, x1 = 0.7015): 0.4466 ± 0.024 mPa·s | viscosity (293.15 K, 101.33 kPa, x1 = 0.8071): 0.416 ± 0.022 mPa·s | viscosity (293.15 K, 101.33 kPa, x1 = 0.9024): 0.4052 ± 0.022 mPa·s | viscosity (298.15 K, 101 kPa, x1 = 0.0502): 0.566 ± 0.02 mPa·s | viscosity (298.15 K, 101 kPa, x1 = 0.0999): 0.551 ± 0.019 mPa·s | viscosity (298.15 K, 101 kPa, x1 = 0.1994): 0.499 ± 0.018 mPa·s | viscosity (298.15 K, 101 kPa, x1 = 0.3005): 0.473 ± 0.017 mPa·s | viscosity (298.15 K, 101 kPa, x1 = 0.4006): 0.457 ± 0.017 mPa·s | viscosity (298.15 K, 101 kPa, x1 = 0.5003): 0.437 ± 0.016 mPa·s | viscosity (298.15 K, 101 kPa, x1 = 0.6): 0.422 ± 0.016 mPa·s | viscosity (298.15 K, 101 kPa, x1 = 0.7003): 0.397 ± 0.015 mPa·s | viscosity (298.15 K, 101 kPa, x1 = 0.8): 0.395 ± 0.015 mPa·s | viscosity (298.15 K, 101 kPa, x1 = 0.8997): 0.376 ± 0.015 mPa·s | viscosity (298.15 K, 101 kPa, x1 = 0.9497): 0.372 ± 0.014 mPa·s | viscosity (298.15 K, 101.33 kPa, x1 = 0.0933): 0.5806 ± 0.031 mPa·s | viscosity (298.15 K, 101.33 kPa, x1 = 0.1906): 0.5446 ± 0.029 mPa·s | viscosity (298.15 K, 101.33 kPa, x1 = 0.2994): 0.5084 ± 0.027 mPa·s | viscosity (298.15 K, 101.33 kPa, x1 = 0.3965): 0.4776 ± 0.025 mPa·s | viscosity (298.15 K, 101.33 kPa, x1 = 0.5143): 0.4676 ± 0.025 mPa·s | viscosity (298.15 K, 101.33 kPa, x1 = 0.6083): 0.4417 ± 0.023 mPa·s | viscosity (298.15 K, 101.33 kPa, x1 = 0.7015): 0.4227 ± 0.022 mPa·s | viscosity (298.15 K, 101.33 kPa, x1 = 0.8071): 0.4037 ± 0.021 mPa·s | viscosity (298.15 K, 101.33 kPa, x1 = 0.9024): 0.398 ± 0.021 mPa·s | viscosity (303.15 K, 101 kPa, x1 = 0.118): 0.536 ± 0.004 mPa·s | viscosity (303.15 K, 101 kPa, x1 = 0.2242): 0.51 ± 0.004 mPa·s | viscosity (303.15 K, 101 kPa, x1 = 0.3408): 0.483 ± 0.004 mPa·s | viscosity (303.15 K, 101 kPa, x1 = 0.5123): 0.445 ± 0.003 mPa·s | viscosity (303.15 K, 101 kPa, x1 = 0.6615): 0.413 ± 0.003 mPa·s | viscosity (303.15 K, 101 kPa, x1 = 0.8195): 0.382 ± 0.003 mPa·s

CCc1ccccc1 + c1ccccc1
viscosity (293.15 K, 101.33 kPa, x2 = 0.2323): 0.657 ± 0.0058 mPa·s | viscosity (293.15 K, 101.33 kPa, x2 = 0.4707): 0.646 ± 0.0057 mPa·s | viscosity (293.15 K, 101.33 kPa, x2 = 0.5427): 0.644 ± 0.0057 mPa·s | viscosity (293.15 K, 101.33 kPa, x2 = 0.7124): 0.635 ± 0.0057 mPa·s | viscosity (293.15 K, 101.33 kPa, x2 = 0.8608): 0.64 ± 0.0057 mPa·s | viscosity (298.15 K, 101.3 kPa, x2 = 0.0268): 0.632 ± 0.0054 mPa·s | viscosity (298.15 K, 101.3 kPa, x2 = 0.1358): 0.6249 ± 0.0053 mPa·s | viscosity (298.15 K, 101.3 kPa, x2 = 0.2562): 0.6202 ± 0.0053 mPa·s | viscosity (298.15 K, 101.3 kPa, x2 = 0.3579): 0.6177 ± 0.0053 mPa·s | viscosity (298.15 K, 101.3 kPa, x2 = 0.4426): 0.6157 ± 0.0053 mPa·s | viscosity (298.15 K, 101.3 kPa, x2 = 0.5472): 0.6134 ± 0.0052 mPa·s | viscosity (298.15 K, 101.3 kPa, x2 = 0.6302): 0.6115 ± 0.0052 mPa·s | viscosity (298.15 K, 101.3 kPa, x2 = 0.7423): 0.608 ± 0.0052 mPa·s | viscosity (298.15 K, 101.3 kPa, x2 = 0.8318): 0.6056 ± 0.0052 mPa·s | viscosity (298.15 K, 101.3 kPa, x2 = 0.9404): 0.6027 ± 0.0052 mPa·s | viscosity (298.15 K, 101.33 kPa, x1 = 0.1): 0.599 ± 0.016 mPa·s | viscosity (298.15 K, 101.33 kPa, x1 = 0.2): 0.601 ± 0.006 mPa·s and 0.601 ± 0.016 mPa·s | viscosity (298.15 K, 101.33 kPa, x1 = 0.4): 0.603 ± 0.016 mPa·s | viscosity (298.15 K, 101.33 kPa, x1 = 0.5): 0.607 ± 0.0061 mPa·s and 0.607 ± 0.016 mPa·s | viscosity (298.15 K, 101.33 kPa, x1 = 0.6): 0.608 ± 0.016 mPa·s | viscosity (298.15 K, 101.33 kPa, x1 = 0.8): 0.616 ± 0.017 mPa·s | viscosity (298.15 K, 101.33 kPa, x2 = 0.145): 0.6185 ± 0.0062 mPa·s | viscosity (298.15 K, 101.33 kPa, x2 = 0.2147): 0.6165 ± 0.0062 mPa·s | viscosity (298.15 K, 101.33 kPa, x2 = 0.2942): 0.6156 ± 0.0062 mPa·s | viscosity (298.15 K, 101.33 kPa, x2 = 0.4187): 0.6078 ± 0.0061 mPa·s | viscosity (298.15 K, 101.33 kPa, x2 = 0.4944): 0.6057 ± 0.0061 mPa·s | viscosity (298.15 K, 101.33 kPa, x2 = 0.5926): 0.6038 ± 0.006 mPa·s | viscosity (298.15 K, 101.33 kPa, x2 = 0.6887): 0.6029 ± 0.006 mPa·s | viscosity (298.15 K, 101.33 kPa, x2 = 0.7786): 0.6012 ± 0.006 mPa·s | viscosity (298.15 K, 101.33 kPa, x2 = 0.8938): 0.6006 ± 0.006 mPa·s | viscosity (298.15 K, 101.33 kPa, x2 = 0.9568): 0.6008 ± 0.006 mPa·s | viscosity (303.15 K, 101.3 kPa, x2 = 0.1358): 0.5881 ± 0.0051 mPa·s | viscosity (303.15 K, 101.3 kPa, x2 = 0.2562): 0.5827 ± 0.005 mPa·s | viscosity (303.15 K, 101.3 kPa, x2 = 0.3579): 0.5777 ± 0.005 mPa·s | viscosity (303.15 K, 101.3 kPa, x2 = 0.4426): 0.5744 ± 0.005 mPa·s | viscosity (303.15 K, 101.3 kPa, x2 = 0.5472): 0.571 ± 0.005 mPa·s | viscosity (303.15 K, 101.3 kPa, x2 = 0.6302): 0.5678 ± 0.005 mPa·s | viscosity (303.15 K, 101.3 kPa, x2 = 0.7423): 0.5637 ± 0.0049 mPa·s | viscosity (303.15 K, 101.3 kPa, x2 = 0.8318): 0.5608 ± 0.0049 mPa·s | viscosity (303.15 K, 101.3 kPa, x2 = 0.9404): 0.5574 ± 0.0049 mPa·s | viscosity (303.15 K, 101.33 kPa, x2 = 0.2323): 0.583 ± 0.0053 mPa·s | viscosity (303.15 K, 101.33 kPa, x2 = 0.4707): 0.57 ± 0.0052 mPa·s | viscosity (303.15 K, 101.33 kPa, x2 = 0.5427): 0.568 ± 0.0052 mPa·s | viscosity (303.15 K, 101.33 kPa, x2 = 0.7124): 0.56 ± 0.0051 mPa·s | viscosity (303.15 K, 101.33 kPa, x2 = 0.8608): 0.561 ± 0.0051 mPa·s | viscosity (308.15 K, 101.33 kPa, x1 = 0.1): 0.528 ± 0.014 mPa·s | viscosity (308.15 K, 101.33 kPa, x1 = 0.2): 0.53 ± 0.014 mPa·s | viscosity (308.15 K, 101.33 kPa, x1 = 0.4): 0.535 ± 0.014 mPa·s | viscosity (308.15 K, 101.33 kPa, x1 = 0.6): 0.542 ± 0.015 mPa·s | viscosity (308.15 K, 101.33 kPa, x1 = 0.8): 0.551 ± 0.015 mPa·s | viscosity (313.15 K, 101.33 kPa, x2 = 0.2323): 0.521 ± 0.0048 mPa·s | viscosity (313.15 K, 101.33 kPa, x2 = 0.5427): 0.506 ± 0.0047 mPa·s | viscosity (313.15 K, 101.33 kPa, x2 = 0.7124): 0.498 ± 0.0046 mPa·s | viscosity (313.15 K, 101.33 kPa, x2 = 0.8608): 0.493 ± 0.0046 mPa·s | viscosity (318.15 K, 101.33 kPa, x1 = 0.1): 0.468 ± 0.013 mPa·s | viscosity (318.15 K, 101.33 kPa, x1 = 0.2): 0.471 ± 0.013 mPa·s | viscosity (318.15 K, 101.33 kPa, x1 = 0.4): 0.477 ± 0.013 mPa·s | viscosity (318.15 K, 101.33 kPa, x1 = 0.5): 0.481 ± 0.013 mPa·s | viscosity (318.15 K, 101.33 kPa, x1 = 0.6): 0.484 ± 0.013 mPa·s | viscosity (318.15 K, 101.33 kPa, x1 = 0.8): 0.492 ± 0.013 mPa·s | viscosity (318.15 K, 101.33 kPa, x2 = 0.145): 0.4939 ± 0.0049 mPa·s | viscosity (318.15 K, 101.33 kPa, x2 = 0.2147): 0.4912 ± 0.0049 mPa·s | viscosity (318.15 K, 101.33 kPa, x2 = 0.2942): 0.4912 ± 0.0049 mPa·s | viscosity (318.15 K, 101.33 kPa, x2 = 0.4187): 0.4812 ± 0.0048 mPa·s | viscosity (318.15 K, 101.33 kPa, x2 = 0.4944): 0.4774 ± 0.0048 mPa·s | viscosity (318.15 K, 101.33 kPa, x2 = 0.5926): 0.4737 ± 0.0047 mPa·s | viscosity (318.15 K, 101.33 kPa, x2 = 0.6887): 0.469 ± 0.0047 mPa·s | viscosity (318.15 K, 101.33 kPa, x2 = 0.7786): 0.4657 ± 0.0047 mPa·s | viscosity (318.15 K, 101.33 kPa, x2 = 0.8938): 0.4621 ± 0.0046 mPa·s | viscosity (318.15 K, 101.33 kPa, x2 = 0.9568): 0.4607 ± 0.0046 mPa·s | viscosity (323.15 K, 101.33 kPa, x1 = 0.1): 0.44 ± 0.012 mPa·s | viscosity (323.15 K, 101.33 kPa, x1 = 0.2): 0.443 ± 0.0044 mPa·s and 0.443 ± 0.012 mPa·s | viscosity (323.15 K, 101.33 kPa, x1 = 0.4): 0.449 ± 0.012 mPa·s | viscosity (323.15 K, 101.33 kPa, x1 = 0.5): 0.453 ± 0.0045 mPa·s and 0.453 ± 0.012 mPa·s | viscosity (323.15 K, 101.33 kPa, x1 = 0.6): 0.456 ± 0.012 mPa·s | viscosity (323.15 K, 101.33 kPa, x1 = 0.8): 0.466 ± 0.013 mPa·s | viscosity (323.15 K, 101.33 kPa, x2 = 0.2323): 0.469 ± 0.0044 mPa·s | viscosity (323.15 K, 101.33 kPa, x2 = 0.4707): 0.456 ± 0.0043 mPa·s | viscosity (323.15 K, 101.33 kPa, x2 = 0.5427): 0.453 ± 0.0043 mPa·s | viscosity (323.15 K, 101.33 kPa, x2 = 0.7124): 0.443 ± 0.0042 mPa·s | viscosity (323.15 K, 101.33 kPa, x2 = 0.8608): 0.44 ± 0.0042 mPa·s
